Source: US10011629B2, “Nucleoside analogs for treatment of the flaviviridae family of viruses and cancer” (Cocrystal Pharma, Inc., priority 2015, dated 2018)
Read-outs that look alike come from different tables or passages of the source.

Legend:
[1] = molecular target: HCV NS5B RNA polymerase GT 3a WT; assay: NS5B enzyme assay, GT 3a WT; format: biochemical; conditions: NS5B enzyme GT 3a WT; average of two to three replicates ± SD
Experimental: The 21-amino-acid C-terminal truncated HCV NS5B RNA polymerase can be cloned from the HCV replicon cells, modified with a six-His-terminal tail, expressed in a prokaryotic expression vector (pQE60; Qiagen), and subsequently purified over a Talon cobalt affinity resin column (Clontech, Palo Alto, Calif.).^1 Purification can be monitored by SDS-PAGE and Western blotting. The resulting purified protein can be dialyzed overnight against 50 mM sodium phosphate (pH 8.0)-300 mM sodium chloride-0.5% Triton X-100-50% glycerol-2 mM dithiothreitol. The dialysate maintains consistent activity for more than 6 months when stored at −20° C. Protein can be quantified with the Coomassie Plus protein assay reagent (Pierce) by using a bovine serum albumin standard from the same supplier.
NS5B RNA polymerase reaction can be studied by monitoring the incorporation of ^32P-labeled UMP into the newly synthesized RNA strand by using minus IRES as the template. […] After the membrane is rinsed with water followed by rinsing with ethanol, the dots can be cut out and the radioactivity counted in a Packard liquid scintillation counter. The amount of product can be calculated on the basis of the total radioactivity in the reaction mixture. The rate of the reaction can be determined from the slope of the time course of product formation. […]

[2] = Cytotoxicity in HCV replicon assay (ΔCt rRNA); format: cell-based; conditions: human
Experimental: (§1) Huh 7 Clone B cells containing HCV Replicon RNA were seeded in a 96-well plate at 5000 cells/well, and the compounds tested at 10 μM in triplicate immediately after seeding. Following five days incubation (37° C., 5% CO2), total cellular RNA was isolated by using versaGene RNA purification kit from Gentra. Replicon RNA and an internal control (TaqMan rRNA control reagents, Applied Biosystems) were amplified in a single step multiplex Real Time RT-PCR Assay. The antiviral effectiveness of the compounds was calculated by subtracting the threshold RT-PCR cycle of the test compound from the threshold RT-PCR cycle of the no-drug control (ΔCt HCV). A ΔCt of 3.3 equals a 1-log reduction (equal to 90% less starting material) in Replicon RNA levels. The cytotoxicity of the compounds was also calculated by using the ΔCt rRNA values. 2′-C-Me-C was used as the positive control. To determine EC90 and IC50 values^2, ΔCt: values were first converted into fraction of starting material^3 and then were used to calculate the % inhibition.

HepG2 cells = assay: Lactic acid production in HepG2 cells; format: cell-based, human; conditions: 14-day assay
Experimental: To measure the effects of the compounds on lactic acid production, HepG2 cells from a stock culture were diluted and plated in 12-well culture plates at 2.5×10^4 cells per well. […] […] The culture medium was then filtered, and the lactic acid content in the medium was determined using a colorimetric lactic acid assay (Sigma-Aldrich). Since lactic acid product can be considered a marker for impaired mitochondrial function, elevated levels of lactic acid production detected in cells grown in the presence of test compounds would indicate a drug-induced cytotoxic effect.

[3] = Assay for bone marrow cytotoxicity; format: cell-based, human; conditions: human, primary bone marrow mononuclear cells; organization LOBP; read-out: Bone marrow toxicity, CC50
Experimental: Primary human bone marrow mononuclear cells can be obtained commercially from Cambrex Bioscience (Walkersville, Md.). CFU-GM assays is carried out using a bilayer soft agar in the presence of 50 units/mL human recombinant granulocyte/macrophage colony-stimulating factor, while BFU-E assays used a […] matrix containing 1 unit/mL erythropoietin (see Sommadossi J P, Carlisle R. Toxicity of 3′-azido-3′-deoxythymidine and 9-(1,3-dihydroxy-2-propoxymethyl) guanine for normal human hepatopoietic progenitor cells in vitro. Antimicrob. Agents Chemother. 1987; 31: 452-454; Sommadossi, J P, Schinazi, R F, Chu, C K, and Xie, M Y. Comparison of cytotoxicity of the (−) and (+) enantiomer of 2′,3′-dideoxy-3′-thiacytidine in normal human bone marrow progenitor cells. Biochem. Pharmacol. 1992; 44:1921-1925). Each experiment can be performed in duplicate in cells from three different donors. AZT is used as a positive control. […] Statistical analysis can be performed with Student's t test for independent non-paired samples.

[4] = test system: nuclear DNA (ß-actin or rRNA gene) in HepG2 cells; assay: Nuclear DNA level in HepG2 cells (real-time PCR); format: cell-based, human; conditions: Homo sapiens, 336 h, HepG2 cells, 14-day assay
Experimental: (§2) This assay was used in all studies described in this application that determine the effect of compounds on mitochondrial DNA content. In this assay, low-passage-number HepG2 cells were seeded at 5,000 cells/well in collagen-coated 96-well plates. Test compounds were added to the medium to obtain final concentrations of 0 μM, 0.1 μM, 10 μM and 100 μM. […] The mitochondrial cytochrome c oxidase subunit II (COXII) gene and the ß-actin or rRNA gene were amplified from 5 μl of the eluted nucleic acids using a multiplex Q-PCR protocol with suitable primers and probes for both target and reference amplifications. […] For exon 3 of the ß-actin gene (GenBank accession number E01094) the sense, probe, and antisense primers are 5′-[…]-3′ (SEQ ID NO. 4), 5′-6-[…]-3′ (SEQ ID NO. 5) and 5′-[…]-3′ (SEQ ID NO. 6), respectively. The primers and probes for the rRNA gene are commercially available from Applied Biosystems. […] The comparative CT method uses arithmetic formulas in which the amount of target (COXII gene) is normalized to the amount of an endogenous reference (the B-actin or rRNA gene) and is relative to a calibrator (a control with no drug at day 7). The arithmetic formula for this approach is given by 2-ΔΔCT, where ΔΔCT is (CT for average target test sample−CT for target control)−(CT for average reference test−CT for reference control) (see Johnson M R, K Wang, J B Smith, M J Heslin, R B Diasio. Quantitation of dihydropyrimidine dehydrogenase expression by real-time reverse transcription polymerase chain reaction. Anal. Biochem. 2000; 278:175-184). A decrease in mitochondrial DNA content in cells grown in the presence of drug indicated mitochondrial toxicity.

[5] = test system: mitochondrial DNA (COXII gene) in HepG2 cells; assay: Mitochondrial DNA level in HepG2 cells (real-time PCR)
Experimental: as §2, with “The” for “The comparative CT method uses arithmetic formulas in which the amount of target (COXII gene) is normalized to the amount of an endogenous reference (the B-actin or rRNA gene) and is relative to a calibrator (a control with no drug at day 7). The”

Huh-7 cells = assay: Cellular pharmacology in Huh7 cells (intracellular metabolites); conditions: Huh-7 cells, 50 μM, 4 hr
Experimental: Ice-cold 70% methanol was used as the extraction solvent. ddATP (10 nM) was used as the internal standard.

[6] = test system: HCV 1b (Huh 7 Clone B cells containing HCV Replicon RNA); assay: HCV replicon assay; format: cell-based; conditions: Hepatitis C virus, Huh-7, read-out: EC90 (μM or letter value) or % inhib HCV
Experimental: as §1, with “inhibition. […]” for “inhibition.”

[7] = Homo sapiens, HepG2, read-out: % inhibition MitDNA

| Compound | EC50 [1] | CC50 at 5 days [2] | Lactic acid Production (% of control) (HepG2 cells; 10 μM) | Lactic acid Production (% of control) (HepG2 cells; 50 μM) | CC50 [3] | inhibition at 10 µM ([4]; 10 μM, read-out: % inhibition nDNA) | inhibition at 50 µM ([4]; 50 μM, read-out: % inhibition nDNA) | IC50 ([4]; read-out: IC50 nDNA) | Summary (mitochondrial toxicity) [5] | inhibition at 10 µM [5, 7] | inhibition at 50 µM [5, 7] | IC50 ([5]; Homo sapiens, HepG2, read-out: IC50 MitDNA) | Summary (mitochondrial toxicity) ([5]; human, 14 days) | MitDNA Content (% of control) ([5]; human, 14 days, 10 μM) | MitDNA Content (% of control) ([5]; human, 14 days, 50 μM) | intracellular 7-DP (Huh-7 cells) | intracellular 7-MP (Huh-7 cells) | intracellular 7-TP (Huh-7 cells) | intracellular 9 (Huh-7 cells) | EC90 [6] |
| --- | --- | --- | --- | --- | --- | --- | --- | --- | --- | --- | --- | --- | --- | --- | --- | --- | --- | --- | --- | --- |
| C[C@@]1(O)[C@H](O)[C@@H](COP(=O)(O)OP(=O)(O)OP(=O)(O)O)O[C@H]1n1ccc(=O)[nH]c1=O [2′-Me-UTP] | 1.8 µM |  |  |  |  |  |  |  |  |  |  |  |  |  |  |  |  |  |  |  |
| O=c1ccn([C@@H]2O[C@H](CO)[C@@H](O)[C@@]2(F)Br)c(=O)[nH]1 [Compound 7, 2′-Deoxy-2′-Bromo-2′-Fluoro Uridine] |  | > 10 µM | 85.0 ± 16.3 % of control | 69.0 ± 13.5 % of control | > 100 µM | 4.4% | < 1% | > 50 µM | not toxic | < 1% | 13.5% | > 50 µM | non-toxic up to 10 μM | 117 (98-138) % of control | 72 (63-83) % of control | BLOQ | BLOQ | BLOQ | BLOQ | > 10 µM |
